From patent US20110118127A1, “MARKER GENES FOR SCREENING OF DRUG-INDUCED TOXICITY IN HUMAN CELLS AND SCREENING METHOD USING THE SAME” (priority 2009, published 2011) come the findings set out here.

≈ marks a conversion by molar mass, not a printed value. Like-named read-outs stand apart in the source and are kept apart here.

For orientation: IC20 means the point of the concentration-response curve where the effect stands at 20%.

Data set [1] is described as follows: in vitro. As to conditions: human.
Experimental: (§1) Human cell lines, BEAS-2B (ATCC, USA), JEG-3 (Korean Cell Line Bank, Korea) and HK-2 (Korean Cell Line Bank, Korea) were cultured in T 75 flask containing DMEM (Gibco-BRL, USA) supplemented with 10% FBS at the concentration of 5×10^5 cells/ml. THLE-3 cells were cultured in BEGM (Gibco-BRL, USA) supplemented with 10% FBS. HUVEC cells (ATCC, USA) were cultured in T 75 flask containing EGM-2 (CAMBREX, USA) supplemented with 5% FBS at the concentration of 5×10^5 cells/ml. […] Those drugs were dissolved in DMSO and water. The concentration of vehicle was up to 0.1% in every experiment.
(§2) MTT assay was performed with BEAS-2B, JEG-3, HK-2, THLE-3 and HUVEC according to the method of Mossman et al (J. Immunol. Methods, 65, 55-63, 1983). The cells (Table 2) in a 24-well plate were treated with each drug dissolved in DMSO or water. […] Then, the medium was eliminated and the formed formazan crystal was dissolved in 500 μl of DMSO. The mixture was aliquoted in a 96-well plate and OD54o was measured.
Data set [2] is described as follows: Cytotoxicity test (MTT assay) in THLE-3. As to conditions: human. On the technique in general: Tetrazolium dyes change colour on reduction, which living cells bring about.
Experimental: as §1, §2
The test system of data set [3] is HepG2. Briefly: Cytotoxicity test (MTT assay) in HepG2. The settings on record: Table 11; HepG2 40 × 10^4 cells/well, 48 h; read-out: Cytotoxicity IC20 Conc. Type of data set: cell-based, human.
Experimental: (§3) The cells (Table 2) in a 24-well plate were treated with each drug dissolved in DMSO or water. 24 and 48 hours later, 5 mg/μl of MTT (3-[4,5-dimethylthiazol-2-yl]-2,5-diphenyltetra zolium bromide) was added thereto, followed by culture at 37 for 3 hours. Then, the medium was eliminated and the formed formazan crystal was dissolved in 500 μl of DMSO. The mixture was aliquoted in a 96-well plate and OD540 was measured.
A short description of data set [4]: in vitro. As to conditions: human. The source holds these as a separate data set.
Data set [5] is described as follows: Cytotoxicity test (MTT assay) in HepG2. Type of data set: cell-based, human. The settings on record: human.
Experimental: as §3
Data set [6] can be described thus: Cytotoxicity test (MTT assay) in HUVEC. Type of data set: cell-based. The settings on record: human, HUVEC 10 × 10^4 cells/well, survival inhibited 20%, read-out: Cytotoxicity IC20 Conc.
Experimental: as §1, §2
Data set [7] concerns THLE-3. Briefly: Cytotoxicity test (MTT assay) in THLE-3. The settings on record: read-out: Cytotoxicity IC20 Conc.; THLE-3 3 × 10^4 cells/well, 3 h; survival inhibited 20%.
Experimental: as §1, §2
Data set [8] deals with HK-2. As to conditions: human, 24 h.
Experimental: (§4) Human cell lines, BEAS-2B (ATCC, USA), JEG-3 (Korean Cell Line Bank, Korea) and HK-2 (Korean Cell Line Bank, Korea) were cultured in T 75 flask containing DMEM (Gibco-BRL, USA) supplemented with 10% FBS at the concentration of 5×10^5 cells/ml. […] Those drugs were dissolved in DMSO and water. The concentration of vehicle was up to 0.1% in every experiment.
(§5) MTT assay was performed with BEAS-2B, JEG-3, HK-2, THLE-3 and HUVEC according to the method of Mossman et al (J. Immunol. Methods, 65, 55-63, 1983). The cells (Table 2) in a 24-well plate were treated with each drug dissolved in DMSO or water. 48 hours later, 5 mg/ml of MTT (3-[4,5-dimethylthiazol-2-yl]-2,5-diphenyltetra zolium bromide) was added thereto, followed by culture at 37 for 3 hours. Then, the medium was eliminated and the formed formazan crystal was dissolved in 500 μl of DMSO. The mixture was aliquoted in a 96-well plate and OD54o was measured.
(§6) MTT assay was performed with BEAS-2B, JEG-3, HK-2 and HepG2 according to the method of Mossman et al (J. Immunol. Methods, 65, 55-63, 1983). The cells (Table 2) in a 24-well plate were treated with each drug dissolved in DMSO or water. 24 and 48 hours later, 5 mg/μl of MTT (3-[4,5-dimethylthiazol-2-yl]-2,5-diphenyltetra zolium bromide) was added thereto, followed by culture at 37 for 3 hours. […] The mixture was aliquoted in a 96-well plate and OD540 was measured.
Data set [9] concerns JEG-3. As to conditions: human, 48 h.
Experimental: as §4, §5
(§7) MTT assay was performed with BEAS-2B, JEG-3, HK-2 and HepG2 according to the method of Mossman et al (J. Immunol. Methods, 65, 55-63, 1983). The cells (Table 2) in a 24-well plate were treated with each drug dissolved in DMSO or water. 24 and 48 hours later, 5 mg/μl of MTT (3-[4,5-dimethylthiazol-2-yl]-2,5-diphenyltetra zolium bromide) was added thereto, followed by culture at 37 for 3 hours. Then, the medium was eliminated and the formed formazan crystal was dissolved in 500 μl of DMSO. The mixture was aliquoted in a 96-well plate and OD540 was measured.
The test system of data set [10] is JEG-3. The data set is described as follows: Cytotoxicity test (MTT assay) in JEG-3. The settings on record: Table 11; JEG-3 3 × 10^4 cells/well, 48 h.
Experimental: as §4, §5, §7
Data set [11] concerns HK-2. The data set is described as follows: Cytotoxicity test (MTT assay) in HK-2. The settings on record: HK-2 2.3 × 10^4 cells/well, 24 h; survival inhibited 30%.
Experimental: as §4, §5, §6

Regarding `O=[N+]([O-])c1ccc2c(c1)Cc1ccccc1-2` [2-nitrofluorene], the IC20 at 3 h in [1] was 80.8 µM. Regarding `O=[N+]([O-])c1cc[n+]([O-])c2ccccc12` [4-nitroquinoline-N-oxide], the IC20 at 3 h in data set [2] stood at 0.00083 mM. On to `CC(=O)Nc1ccc(O)cc1` [Acetaminophene], for which the IC20 in data set [3] is 11 mM. Compound `CCCCc1oc2ccccc2c1C(=O)c1cc(I)c(OCCN(CC)CC)c(I)c1` [Amiodarone] showed an IC20 at 48 h in [4] of 29.4 µM. `c1ccc2c(c1)cc1ccc3cccc4ccc2c1c34` [Benzo(a)pyrene] displayed an IC20 at 48 h in [5] of 8.35 µM. `NC(=O)N1c2ccccc2C=Cc2ccccc21` [Carbamazepine]: the IC20 at 48 h in data set [4] was found to be 324 µM. On to `COc1cccc2c1C(=O)c1c(O)c3c(c(O)c1C2=O)C[C@@](O)(C(C)=O)C[C@@H]3O[C@H]1C[C@H](N)[C@H](O)[C@H](C)O1` [Daunorubicin], for which the IC20 at 48 h in [6] was 0.191 µg/mL (≈ 0.362 µM). With `COc1cccc2c1C(=O)c1c(O)c3c(c(O)c1C2=O)C[C@@](O)(C(=O)CO)C[C@@H]3O[C@H]1C[C@H](N)[C@H](O)[C@H](C)O1` [Doxorubicin], the IC20 at 48 h in [6] was determined as 0.083 µg/mL (≈ 0.153 µM). In the case of `NC(=O)/C(=C\c1ccc([N+](=O)[O-])o1)c1ccco1` [Furylfuramide], in data set [7], the IC20 was 243 µM. Regarding `CC(C)Cc1ccc(C(C)C(=O)O)cc1` (stereo not shown) [Ibuprofen], the “Cytotoxicity IC30 Conc.” value in data set [8] is 1.65 mg/mL. `CN(Cc1cnc2nc(N)nc(N)c2n1)c1ccc(C(=O)N[C@@H](CCC(=O)O)C(=O)O)cc1` [Methotrexate] yielded an IC20 at 48 h in [4] of 0.144 µM. Also, the “Cytotoxicity IC30 Conc.” value in data set [9] is listed as 4.75 mM. Take `COS(C)(=O)=O` [Methylmethanesulfonate, methylmethanesulfonate]: in [1], the IC20 at 3 h was 510 µM. In data set [2], `CN(N=O)C(N)=O` [N-nitroso-N-methylurea] gave an IC20 at 3 h of 2.09 mM. In data set [4], `O=C1CN(/N=C/c2ccc([N+](=O)[O-])o2)C(=O)N1` [Nitrofurantoin] registered an IC20 at 48 h of 89.5 µM.

Consider `O=C1CCC(N2C(=O)c3ccccc3C2=O)C(=O)N1` (stereo not shown) [Thalidomide], for which the “Cytotoxicity IC30 Conc.” value in data set [9] is 4.283 mM. For `CCCC(CCC)C(=O)O` [Valproic acid], the “Cytotoxicity IC30 Conc.” value in data set [9] amounted to 7.38 mM. In the case of `CC(=O)CC(c1ccccc1)c1c(O)c2ccccc2oc1=O` (stereo not shown) [Warfarin], in data set [10], the “Cytotoxicity IC30 Conc.” value was 8.16 mM. Take Gentamycin: the “Cytotoxicity IC30 Conc.” value in data set [11] stood at 3.44 mg/mL.
